Assay results from PubChem BioAssay (NCI).
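Interpolation was linear, between the two tested concentrations surrounding the appropriate level; five concentrations were tested over 48 hours in 96-well plates. GI50 is the concentration that inhibits growth by half. At the TGI there is no net growth.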

How the values were obtained:
Assay in all cases: growth of human tumour cells (NCI), 48 h
[1] = system: HOP-18 NSCLC
[2] = system: MALME-3M melanoma
[3] = system: SK-MEL-2 melanoma
[4] = system: NCI-H226 lung
[5] = system: UO-31 renal
[6] = system: M19-MEL melanoma
[7] = system: SK-MEL-5 melanoma
[8] = system: OVCAR-3 ovarian
[9] = system: HL-60(TB) leukemia
[10] = system: TK-10 renal
[11] = system: SF-295 CNS
[12] = system: RXF 393 renal
[13] = system: NCI-H23 lung
[14] = system: A498 renal
[15] = system: KM12 colon
[16] = system: NCI/ADR-RES ovarian

SMILES | TGI [1] [µM] | TGI [2] [µM] | TGI [3] [µM] | TGI [4] [µM] | TGI [5] [µM] | TGI [6] [µM] | TGI [7] [µM] | TGI [8] [µM] | TGI [9] [µM] | TGI [10] [µM] | TGI [11] [µM] | TGI [12] [µM] | TGI [13] [µM] | TGI [14] [µM] | TGI [15] [µM] | TGI [16] [µM] | GI50 [1] [µM] | GI50 [5] [µM] | GI50 [10] [µM] | GI50 [14] [µM]
C=C1CC[C@@H](Br)C(C)(C)[C@]12CCC(C)(O)C(Cl)C2 (some centres undefined) | 59.1 | 86.2 | 39.7 | 31 | 32 | 34.3 | 35.7 | 35.8 | 42.2 | 78.4 | 43.1 | 34.2 | 64.4 | 44.7 | 33.8 |  |  |  |  | 
O=C(CCl)NC(Cc1ccc(F)cc1)C(=O)O (centres undefined) | > 100 | > 100 | > 100 | > 100 | > 100 | > 100 | > 100 | > 100 | > 100 |  | > 100 |  | > 100 | > 100 | > 100 | > 100 |  |  |  | 
CC(=O)O[C@H]1CC[C@@]2(C)C(=CC[C@@H]3[C@@H]2CC[C@]2(C)Nc4c(cnn4S(C)(=O)=O)C[C@@H]32)C1 |  | > 100 | > 100 | > 100 | > 100 |  | 30.6 | > 100 | 71.3 |  | > 100 | 92.2 | > 100 | > 100 | > 100 | > 100 |  |  |  | 
CC1CCC(O)(C(C)(C(=O)O)c2ccccc2)CC1 (centres undefined) |  | > 100 | > 100 | > 100 | > 100 |  | > 100 | > 100 | > 100 | > 100 | > 100 | > 100 | > 100 | > 100 | > 100 | > 100 |  |  |  | 
CCOC(=O)[C@H]1Nc2c(cccc2[N+](=O)[O-])[C@H]2OCC[C@@H]12 | > 100 | > 100 | > 100 | > 100 | > 100 | > 100 | > 100 | > 100 |  | > 100 | > 100 | > 100 | > 100 |  | > 100 |  |  |  |  | 
C/C(=N\Oc1cc(Cl)ncn1)c1ccccn1 |  | > 100 | > 100 | > 100 | > 100 |  | > 100 | > 100 |  | > 100 | > 100 | 95.7 | 92.7 |  | > 100 | > 100 |  |  |  | 
CCOC(=O)Nc1cc2c(c(N)n1)N=C(c1ccccc1)[C@H](C)N2 | > 100 | 16.4 | 13.6 | 0.0464 | 44.5 | 29.2 |  | 0.016 | < 0.0001 | 57.3 |  |  | 0.0464 |  |  |  | 29.1 | 10.1 | 14.2 | < 0.0001
Cc1ccc([N+](=O)[O-])cc1NC(=O)C(=O)C(C(=O)c1ccccc1F)C1OC(=O)c2ccccc21 (centres undefined) |  |  | > 100 | 69.6 | > 100 | > 100 | > 100 |  | > 100 | > 100 | > 100 | 53.9 | > 100 | > 100 | > 100 |  |  |  |  | 
O=C(O)CCSCc1ccc(I)cc1 |  | > 100 | > 100 | > 100 | > 100 |  | > 100 | > 100 | > 100 | > 100 | > 100 | > 100 | > 100 | > 100 | > 100 | > 100 |  |  |  | 
Oc1c2c(c3c4c1N=CC=4CCN=3)-c1c(Br)cc(Br)cc1CCN2 | 7.91 |  | 13.5 | 16.8 | 23.1 | 3.33 | 3.38 |  | 4.09 |  | 11 | 20.2 | 3.88 | 24.7 | 9.21 | 12.5 |  |  |  | 
NC(=S)Nc1cc(Cl)ccc1Cl | > 100 | > 100 | > 100 | > 100 | > 100 | > 100 | > 100 | > 100 | > 100 | > 100 | > 100 | > 100 | > 100 | > 100 | > 100 |  |  |  |  | 
